Reference: the NIST ThermoML archive (doi:10.1021/je050223a)

Key:
[1] = 101.33 kPa, Liquid
[2] = xn = mol fraction of the nth substance listed; conditions: 101.33 kPa, Liquid

C=C(C)C(=O)OCCO [2-hydroxyethyl 2-methyl-2-propenoate]
[1]
Conditions | mass density [kg/m3] | viscosity [mPa·s]
298.15 K | 1067.1 | 5.784
308.15 K | 1057.7 | 4.194
318.15 K | 1048.6 | 3.181

C=C(C)C(=O)OCCO [2-hydroxyethyl 2-methyl-2-propenoate] + CCOCCC(=O)OCC
[2], x2 = 0
Conditions | mass density [kg/m3] | viscosity [mPa·s]
298.15 K | 1067.1 | 5.784
308.15 K | 1057.7 | 4.194
318.15 K | 1048.6 | 3.181

C=C(C)C(=O)O [2-methyl-2-propenoic acid]
[1]
Conditions | mass density [kg/m3] | viscosity [mPa·s]
298.15 K | 1009.5 | 1.267
308.15 K | 999.4 | 1.078
318.15 K | 989.2 | 0.945

C=C(C)C(=O)O [2-methyl-2-propenoic acid] + CCOCCC(=O)OCC
[2], x2 = 0
Conditions | mass density [kg/m3] | viscosity [mPa·s]
298.15 K | 1009.5 | 1.267
308.15 K | 999.4 | 1.078
318.15 K | 989.2 | 0.945

C=C(C)C(=O)OCc1ccccc1 [benzyl methacrylate]
[1]
Conditions | mass density [kg/m3] | viscosity [mPa·s]
298.15 K | 1034.7 | 2.302
308.15 K | 1025.8 | 1.885
318.15 K | 1017 | 1.58

C=C(C)C(=O)OCc1ccccc1 [benzyl methacrylate] + CCOCCC(=O)OCC
[2], x2 = 0
Conditions | mass density [kg/m3] | viscosity [mPa·s]
298.15 K | 1034.7 | 2.302
308.15 K | 1025.8 | 1.885
318.15 K | 1017 | 1.58

CCCCO [butan-1-ol]
[1]
Conditions | mass density, 298.15 K [kg/m3] | mass density, 303.15 K [kg/m3] | mass density, 308.15 K [kg/m3] | mass density, 313.15 K [kg/m3] | viscosity, 298.15 K [mPa·s] | viscosity, 303.15 K [mPa·s] | viscosity, 308.15 K [mPa·s] | viscosity, 313.15 K [mPa·s]
Capillary tube (Ostwald / Ubbelohde) method | – | – | – | – | 2.566 | 2.265 | 1.998 | 1.778
Pycnometric method | 805.6 | 802.1 | 798 | 794.5 | – | – | – | –

CCOCCC(=O)OCC [ethyl β-ethoxypropionate]
[1]
Conditions | mass density [kg/m3] | viscosity [mPa·s]
298.15 K | 943.2 | 1.176
308.15 K | 933.4 | 0.996
318.15 K | 923.3 | 0.859

CCOCCC(=O)OCC [ethyl β-ethoxypropionate] + C=C(C)C(=O)O
[2]
Conditions | mass density, 298.15 K [kg/m3] | mass density, 308.15 K [kg/m3] | mass density, 318.15 K [kg/m3] | viscosity, 298.15 K [mPa·s] | viscosity, 308.15 K [mPa·s] | viscosity, 318.15 K [mPa·s]
x1 = 0.1 | 1000.5 | 990.7 | 980.6 | 1.349 | 1.139 | 0.986
x1 = 0.1999 | 992.4 | 982.7 | 972.8 | 1.425 | 1.198 | 1.028
x1 = 0.3 | 984.9 | 975.1 | 965.2 | 1.504 | 1.257 | 1.075
x1 = 0.4 | 978.1 | 968.3 | 958.4 | 1.551 | 1.293 | 1.103
x1 = 0.5 | 971.5 | 961.7 | 951.9 | 1.516 | 1.262 | 1.08
x1 = 0.6 | 965.3 | 955.6 | 945.7 | 1.439 | 1.211 | 1.029
x1 = 0.7 | 959.5 | 949.8 | 939.8 | 1.369 | 1.156 | 0.982
x1 = 0.8 | 954.1 | 944.4 | 934.4 | 1.313 | 1.108 | 0.944
x1 = 0.8999 | 948.5 | 938.9 | 929.1 | 1.243 | 1.049 | 0.899
x1 = 1 | 943.2 | 933.4 | 923.3 | 1.176 | 0.996 | 0.859

CCOCCC(=O)OCC [ethyl β-ethoxypropionate] + C=C(C)C(=O)OCCO
[2]
Conditions | mass density, 298.15 K [kg/m3] | mass density, 308.15 K [kg/m3] | mass density, 318.15 K [kg/m3] | viscosity, 298.15 K [mPa·s] | viscosity, 308.15 K [mPa·s] | viscosity, 318.15 K [mPa·s]
x1 = 0.1 | 1053 | 1043.6 | 1034.4 | 4.507 | 3.352 | 2.598
x1 = 0.2 | 1039.1 | 1029.6 | 1020.3 | 3.696 | 2.821 | 2.239
x1 = 0.3 | 1025.6 | 1016.1 | 1006.6 | 3.072 | 2.379 | 1.918
x1 = 0.4 | 1012.7 | 1003.1 | 993.5 | 2.503 | 1.98 | 1.611
x1 = 0.5 | 1000.2 | 990.5 | 980.8 | 2.156 | 1.731 | 1.425
x1 = 0.6 | 988.1 | 978.4 | 968.6 | 1.833 | 1.495 | 1.243
x1 = 0.6999 | 976.5 | 966.8 | 956.9 | 1.627 | 1.34 | 1.127
x1 = 0.8 | 965.2 | 955.5 | 945.6 | 1.417 | 1.181 | 1.007
x1 = 0.9 | 954.3 | 944.6 | 934.6 | 1.269 | 1.065 | 0.911
x1 = 1 | 943.2 | 933.4 | 923.3 | 1.176 | 0.996 | 0.859

CCOCCC(=O)OCC [ethyl β-ethoxypropionate] + C=C(C)C(=O)OCc1ccccc1
[2]
Conditions | mass density, 298.15 K [kg/m3] | mass density, 308.15 K [kg/m3] | mass density, 318.15 K [kg/m3] | viscosity, 298.15 K [mPa·s] | viscosity, 308.15 K [mPa·s] | viscosity, 318.15 K [mPa·s]
x1 = 0.1 | 1027 | 1017.9 | 1008.9 | 2.16 | 1.767 | 1.479
x1 = 0.2 | 1019.1 | 1009.9 | 1000.7 | 2.027 | 1.664 | 1.398
x1 = 0.3 | 1010.9 | 1001.5 | 992.1 | 1.91 | 1.571 | 1.323
x1 = 0.4 | 1002.3 | 992.7 | 983.2 | 1.795 | 1.48 | 1.247
x1 = 0.4999 | 993.4 | 983.7 | 974 | 1.681 | 1.391 | 1.173
x1 = 0.6 | 984.2 | 974.4 | 964.5 | 1.569 | 1.303 | 1.101
x1 = 0.7 | 974.7 | 964.8 | 954.7 | 1.457 | 1.215 | 1.029
x1 = 0.8 | 964.9 | 954.9 | 944.6 | 1.347 | 1.129 | 0.961
x1 = 0.9 | 954.3 | 944.3 | 934.1 | 1.242 | 1.047 | 0.899
x1 = 1 | 943.2 | 933.4 | 923.3 | 1.176 | 0.996 | 0.859
